From the NIST ThermoML archive (doi:10.1016/j.tca.2006.05.019)
Numbers after ± are expanded uncertainties.

Conditions: 101.33 kPa, Crystal, Vacuum adiabatic calorimetry

## O=P([O-])([O-])[O-].[Lu+3] [lutetium phosphate]
6 K
  molar entropy: 0.012 ± 0.015 J/K/mol
8 K
  molar entropy: 0.0284 ± 0.015 J/K/mol
10 K
  molar entropy: 0.0553 ± 0.016 J/K/mol
12 K
  molar entropy: 0.095 ± 0.016 J/K/mol
14 K
  molar entropy: 0.152 ± 0.017 J/K/mol
16 K
  molar entropy: 0.226 ± 0.017 J/K/mol
18 K
  molar entropy: 0.322 ± 0.018 J/K/mol
20 K
  molar entropy: 0.441 ± 0.019 J/K/mol
25 K
  molar entropy: 0.858 ± 0.021 J/K/mol
30 K
  molar entropy: 1.47 ± 0.06 J/K/mol
35 K
  molar entropy: 2.28 ± 0.07 J/K/mol
40 K
  molar entropy: 3.29 ± 0.07 J/K/mol
45 K
  molar entropy: 4.48 ± 0.07 J/K/mol
50 K
  molar entropy: 5.82 ± 0.08 J/K/mol
55 K
  molar entropy: 7.3 ± 0.08 J/K/mol
60 K
  molar entropy: 8.89 ± 0.09 J/K/mol
65 K
  molar entropy: 10.58 ± 0.09 J/K/mol
70 K
  molar entropy: 12.33 ± 0.1 J/K/mol
75 K
  molar entropy: 14.15 ± 0.1 J/K/mol
80 K
  molar entropy: 16.02 ± 0.11 J/K/mol
85 K
  molar entropy: 17.93 ± 0.11 J/K/mol
90 K
  molar entropy: 19.88 ± 0.33 J/K/mol
95 K
  molar entropy: 21.85 ± 0.33 J/K/mol
100 K
  molar entropy: 23.84 ± 0.34 J/K/mol
110 K
  molar entropy: 27.89 ± 0.34 J/K/mol
120 K
  molar entropy: 31.97 ± 0.35 J/K/mol
130 K
  molar entropy: 36.07 ± 0.35 J/K/mol
140 K
  molar entropy: 40.18 ± 0.36 J/K/mol
150 K
  molar entropy: 44.27 ± 0.37 J/K/mol
160 K
  molar entropy: 48.34 ± 0.37 J/K/mol
170 K
  molar entropy: 52.38 ± 0.38 J/K/mol
180 K
  molar entropy: 56.34 ± 0.38 J/K/mol
190 K
  molar entropy: 60.33 ± 0.39 J/K/mol
200 K
  molar entropy: 64.24 ± 0.4 J/K/mol
210 K
  molar entropy: 68.09 ± 0.4 J/K/mol
220 K
  molar entropy: 71.89 ± 0.41 J/K/mol
230 K
  molar entropy: 75.64 ± 0.41 J/K/mol
240 K
  molar entropy: 79.34 ± 0.42 J/K/mol
250 K
  molar entropy: 82.98 ± 0.42 J/K/mol
260 K
  molar entropy: 86.56 ± 0.43 J/K/mol
270 K
  molar entropy: 90.09 ± 0.44 J/K/mol
280 K
  molar entropy: 93.57 ± 0.44 J/K/mol
290 K
  molar entropy: 96.99 ± 0.45 J/K/mol
300 K
  molar entropy: 100.4 ± 0.5 J/K/mol
310 K
  molar entropy: 103.7 ± 0.5 J/K/mol
320 K
  molar entropy: 106.9 ± 0.5 J/K/mol
